Measured values: patent US10023565B2, “N,N′ substituted piperidinamine compounds, and preparation method and usage thereof” (Institute of Pharmacology and Toxicology Academy of …, priority 2013, dated 2018)

What was measured:
Type in all cases: cell-based
[1] = tested on: H460; test: Extended test against tumor cell lines (ATPlite); conditions: H460 (lung cancer), 72 hours
Procedure: (§1) The compounds of Examples 36/37/40/47/49 were used to carry out extended test against tumor cell lines, wherein 12 kinds of cells were selected, including liver cancer cells, gastric cancer cells, pancreatic cancer cells, colorectal cancer cells, lung cancer cells and normal cells, which were shown in Table 12:
(§2) A 100 mm culture dish with overgrown adherent cells was digested with 1 ml 0.25% trypsin (GIBCO) at 37° C. for 5 min, and the reaction was terminated with 2 ml culture medium (containing 10% FBS, GIBCO). The cells were scattered and collected, after counting, diluted to 1×10^5 cells/ml, and seeded into a 96-well plate at 50 μl/well, 5000 cells/well, excluding the peripheral circle of wells in which no cell was added, but PBS was added, 54 wells in total, and then incubated at 37° C. for 24 hours for adhering.
(§3) The test sample was diluted to final concentration of 4, 1, 0.25, 0.063, 0.016 μM, culture medium was filled in control well, 3 parellel wells were set for each concentration, 50 μl each well, followed by incubation at 37° C. for 72 hours.
(§4) 3) Test after incubation at 37° C. for 72 hours: 50 μL of ATPlite kitsubstrate solution was added in each well, and vibrated for 3 min, followed by placing aside in darkness for 10 min, and then supernatant 100 μl/well was taken and placed on a luminescence test plate; the luminescence test plate that has been fully incubated was placed in a luminescence test instrument, to read luminescence value.
(§5) Cell survival rate (%)=Experimental group RLU/control group RLU×100%. The experimental data were subjected to data analysis and processing by utilizing GraphPad software.

[2] = tested on: BGC823; test: Extended test against tumor cell lines (ATPlite); conditions: BGC823 (gastric cancer), 72 hours
Procedure: as §1, §2, §3, §4, §5

[3] = tested on: HT-29; test: Extended test against tumor cell lines (ATPlite); conditions: HT-29 (colorectal cancer), 72 hours
Procedure: as §1, §2, §3, §4, §5

[4] = tested on: Huh-7; test: Extended test against tumor cell lines (ATPlite); conditions: Huh-7 (liver cancer), 72 hours
Procedure: as §1, §2, §3, §4, §5

[5] = tested on: N87; test: Extended test against tumor cell lines (ATPlite); conditions: N87 (gastric cancer), 72 hours
Procedure: as §1, §2, §3, §4, §5

[6] = tested on: HepG2; test: Extended test against tumor cell lines (ATPlite); conditions: HepG2 (liver cancer), 72 hours
Procedure: as §1, §2, §3, §4, §5

[7] = tested on: MIA-PaCa-2; test: Extended test against tumor cell lines (ATPlite); conditions: MIA-PaCa-2 (pancreatic cancer), 72 hours
Procedure: as §1, §2, §3, §4, §5

[8] = tested on: WI-38 (human embryonic lung fibroblast); test: Extended test against tumor cell lines (ATPlite); conditions: WI-38 (normal cells), 72 hours
Procedure: as §1, §2, §3, §4, §5

[9] = tested on: A549; test: Extended test against tumor cell lines (ATPlite); conditions: A549 (lung cancer), 72 hours
Procedure: as §1, §2, §3, §4, §5

[10] = tested on: AsPC-1; test: Extended test against tumor cell lines (ATPlite); conditions: AsPC-1 (pancreatic cancer), 72 hours
Procedure: as §1, §2, §3, §4, §5

[11] = tested on: MRC5 (lung epithelial fibroblast); test: Extended test against tumor cell lines (ATPlite); conditions: MRC5 (normal cells), 72 hours
Procedure: as §1, §2, §3, §4, §5

[12] = tested on: six human breast cancer cell strains; test: Antitumor activity evaluation, statements on the whole panel; conditions: compound alone
Text: In antitumor activity evaluation, six human breast cancer cell strains are selected, including BT474, SK-BR3 which are human breast cancer cell strains sensitive to lapatinib, BT/Lap^R1.0, SK/Lap^R1.0 which are human breast cancer cell strains with secondary resistance to lapatinib, MDA-MB-361, MDA-MB-453 which are human breast cancer cell strains with natural resistance tolapatinib.
Antitumor bioactivity evaluation of the compounds of Examples according to the method described below
as §2, with “Cells plating: a” for “A”, “60” for “54”
Addition of the compound and lapatinib: the test sample was diluted to a final concentration of 5 μM, and the culture medium with the corresponding compound solvent concentration was filled in the control well, the compound solvent concentration was kept consistent in each well, 5 parellel wells were set for each concentration, 25 μl each well, 25 μl culture medium (in combined group, 25 μl lapatinib was added till a final concentration of 1 μM) supplemented, followed by incubation at 37° C. for 72 hours.
as §4, with “Test” for “3) Test”, “ATPlite kit substrate” for “ATPlite kitsubstrate”, “on aluminescence” for “on a luminescence”
1. Cell survival rate (%)=Experimental group RLU/control group RLU×100%. The experimental data were subjected to data analysis and processing by utilizing GraphPad software.

CSc1nccc(N2CCC(N(C)Cc3c(F)cccc3Cl)CC2)n1 [Example 37, N-methyl-N-(2-fluoro-6-chlorobenzyl)-N-[1-(2-methylthiopyrimidin-4-yl)piperidin-4-yl]amine]
Survival rate ([1]; 0.016 μM): 97.7%
Survival rate ([1]; 0.063 μM): 97.9%
Survival rate ([1]; 0.25 μM): 92.3%
Survival rate ([1]; 1 μM): 63.1%
Survival rate ([1]; 4 μM): 22%
Survival rate ([2]; 0.016 μM): 97.6%
Survival rate ([2]; 0.063 μM): 97.2%
Survival rate ([2]; 0.25 μM): 90.2%
Survival rate ([2]; 1 μM): 59.7%
Survival rate ([2]; 4 μM): 21%
Survival rate ([3]; 0.016 μM): 99.3%
Survival rate ([3]; 0.063 μM): 97.4%
Survival rate ([3]; 0.25 μM): 94.4%
Survival rate ([3]; 1 μM): 82.1%
Survival rate ([3]; 4 μM): 33.8%
Survival rate ([4]; 0.016 μM): 91.9%
Survival rate ([4]; 0.063 μM): 86.7%
Survival rate ([4]; 0.25 μM): 82.3%
Survival rate ([4]; 1 μM): 46.7%
Survival rate ([4]; 4 μM): 14.9%
Survival rate ([5]; 0.016 μM): 98.9%
Survival rate ([5]; 0.063 μM): 95.6%
Survival rate ([5]; 0.25 μM): 89.7%
Survival rate ([5]; 1 μM): 66.8%
Survival rate ([5]; 4 μM): 37.1%
Survival rate ([6]; 0.016 μM): 97.1%
Survival rate ([6]; 0.063 μM): 92.3%
Survival rate ([6]; 0.25 μM): 78.1%
Survival rate ([6]; 1 μM): 45.7%
Survival rate ([6]; 4 μM): 5.6%
Survival rate ([7]; 0.016 μM): 97.6%
Survival rate ([7]; 0.063 μM): 97.5%
Survival rate ([7]; 0.25 μM): 91.5%
Survival rate ([7]; 1 μM): 61.9%
Survival rate ([7]; 4 μM): 16%
Survival rate ([8]; 0.016 μM): 98.6%
Survival rate ([8]; 0.063 μM): 99.2%
Survival rate ([8]; 0.25 μM): 95.5%
Survival rate ([8]; 1 μM): 89.7%
Survival rate ([8]; 4 μM): 65.6%
Survival rate ([9]; 0.016 μM): 99.5%
Survival rate ([9]; 0.063 μM): 98.5%
Survival rate ([9]; 0.25 μM): 97.6%
Survival rate ([9]; 1 μM): 73%
Survival rate ([9]; 4 μM): 39.5%
Survival rate ([10]; 0.016 μM): 98.8%
Survival rate ([10]; 0.063 μM): 99.5%
Survival rate ([10]; 0.25 μM): 94.1%
Survival rate ([10]; 1 μM): 81.7%
Survival rate ([10]; 4 μM): 52.3%
Survival rate ([11]; 0.016 μM): 97.3%
Survival rate ([11]; 0.063 μM): 99.5%
Survival rate ([11]; 0.25 μM): 93.5%
Survival rate ([11]; 1 μM): 90.4%
Survival rate ([11]; 4 μM): 65.3%
growth inhibition to the six human breast cancer cell strains [12]: relatively significant growth inhibition

CSc1nccc(N2CCC(N(C)Cc3ccc(Cl)cc3Cl)CC2)n1 [Example 40, N-methyl-N-(2,4-dichlorobenzyl)-N-[1-(2-methylthiopyrimidin-4-yl)piperidin-4-yl]amine]
Survival rate ([1]; 0.016 μM): 98.7%
Survival rate ([1]; 0.063 μM): 98.7%
Survival rate ([1]; 0.25 μM): 93.7%
Survival rate ([1]; 1 μM): 75.9%
Survival rate ([1]; 4 μM): 26.3%
Survival rate ([2]; 0.016 μM): 98.3%
Survival rate ([2]; 0.063 μM): 103.1%
Survival rate ([2]; 0.25 μM): 91.3%
Survival rate ([2]; 1 μM): 73.7%
Survival rate ([2]; 4 μM): 21.1%
Survival rate ([3]; 0.016 μM): 100.6%
Survival rate ([3]; 0.063 μM): 105.4%
Survival rate ([3]; 0.25 μM): 102%
Survival rate ([3]; 1 μM): 89.2%
Survival rate ([3]; 4 μM): 41.2%
Survival rate ([4]; 0.016 μM): 93.8%
Survival rate ([4]; 0.063 μM): 90.7%
Survival rate ([4]; 0.25 μM): 87.3%
Survival rate ([4]; 1 μM): 65.2%
Survival rate ([4]; 4 μM): 14.3%
Survival rate ([5]; 0.016 μM): 97.9%
Survival rate ([5]; 0.063 μM): 92.7%
Survival rate ([5]; 0.25 μM): 89.7%
Survival rate ([5]; 1 μM): 71.5%
Survival rate ([5]; 4 μM): 36.3%
Survival rate ([6]; 0.016 μM): 94.7%
Survival rate ([6]; 0.063 μM): 94.8%
Survival rate ([6]; 0.25 μM): 86.4%
Survival rate ([6]; 1 μM): 55.3%
Survival rate ([6]; 4 μM): 4.5%
Survival rate ([7]; 0.016 μM): 94.6%
Survival rate ([7]; 0.063 μM): 94.8%
Survival rate ([7]; 0.25 μM): 90.2%
Survival rate ([7]; 1 μM): 77.3%
Survival rate ([7]; 4 μM): 20.6%
Survival rate ([8]; 0.016 μM): 99.3%
Survival rate ([8]; 0.063 μM): 97.3%
Survival rate ([8]; 0.25 μM): 95.8%
Survival rate ([8]; 1 μM): 92.3%
Survival rate ([8]; 4 μM): 64.2%
Survival rate ([9]; 0.016 μM): 97.1%
Survival rate ([9]; 0.063 μM): 95.9%
Survival rate ([9]; 0.25 μM): 95.3%
Survival rate ([9]; 1 μM): 81.2%
Survival rate ([9]; 4 μM): 38%
Survival rate ([10]; 0.016 μM): 97.8%
Survival rate ([10]; 0.063 μM): 96.1%
Survival rate ([10]; 0.25 μM): 93.1%
Survival rate ([10]; 1 μM): 83.3%
Survival rate ([10]; 4 μM): 51.2%
Survival rate ([11]; 0.016 μM): 93.6%
Survival rate ([11]; 0.063 μM): 88.9%
Survival rate ([11]; 0.25 μM): 91.9%
Survival rate ([11]; 1 μM): 86.5%
Survival rate ([11]; 4 μM): 67.6%
growth inhibition to the six human breast cancer cell strains [12]: relatively significant growth inhibition
